Assay results: US7575640B2, “Method for producing sugar and sugar-containing products from sugar-containing plant raw materials” (Zuckerforschung Tulln Gesellschaft m.b.H., priority 2003, dated 2009)
Converted amounts (≈) assume the structure as drawn. Where two headings read alike, the source gives them in different places.

Legend:
yeasts = test: efficacy relative to yeasts; assay type: cell-based; conditions: compared with thermophilic bacteria
mesophilic mixed culture = test: pH drop in mixed culture incubated at 35° C.; assay type: cell-based
Description: (§1) A liquid culture medium, as commonly used in microbiology and consisting of 10 g of Bacto-peptone, 5 g of meat extract, 5 g of yeast extract, 1 g of glucose, 1 g of K2HPO4, 0.1 g of MgSO4*7H2O and 0.01 g of FeSO4*7H2O per liter of distilled water, is sterilized in conventional manner for 20 min at 120° C. and inoculated, in a vessel kept at a temperature of 65° C., with 20 ml of crude juice from a large-scale sugar beet extraction, wherein the pH is registered on a recorder. Upon the growth of thermophilic bacteria, the pH drops progressively. This indicates a microorganism-caused acid formation.
A mixed culture according to Example 1 is prepared, yet incubated at 35° C. A pH drop starting after 5 hours cannot be stopped by 11 successive additions of 1 ml of a 1% alcoholic solution of myristic acid per liter culture, corresponding to 110 mg/l, and a further addition of 4 ml, i.e. in sum 150 mg/l.

thermophilic bacteria [1] = test: pH drop (acid formation) in liquid culture medium inoculated with crude juice from sugar beet extraction, 65° C.; assay type: cell-based, thermophilic bacteria (mixed culture); conditions: 65° C.; for pH / ΔpH/h: 10 mg/l added at pH 6.47 (5.10 h)
Description: If a sugar-containing substrate, e.g. a sugar-containing liquid culture medium, as it is common in microbiology, is either non-sterilized or incubated after inoculation with a bacterial strain, an acid formation will occur which is the easiest to recognize by a drop in the pH. The same phenomenon will occur when incubating normal sugar-containing plant juices, e.g. beet juice. In an industrial process, e.g. in the recovery of sugar juice from sugar beets, a drop in the pH by degradation of sugar means a loss of sugar and a need for an alkalizing agent. Moreover, a drop in the pH with an increase in the germ content in the substrate often is associated with an unpleasant gas and nitrite formation.
as §1
A mixed culture according to Example 1 is prepared.

thermophilic bacteria [2] = test: determination of MIC by stepwise addition until stabilization of the pH, 65° C.; assay type: cell-based, thermophilic bacteria (mixed culture)
Description: To illustrate the antimicrobial activity within the scope of sugar production, examples are carried out with […] compounds by way of example. […] Upon the growth of thermophilic bacteria, the pH drops progressively. This indicates a microorganism-caused acid formation. […] The fatty acid compounds used in this Example are myristic acid and lauric acid, and their potassium salts, respectively. In this case, the acids were used both individually and in a 1:1 mixture, the salts were exclusively used in a 1:1 mixture.

[3] = tested on: pure culture strain DSMZ 457; test: pH drop in liquid culture medium inoculated with pure culture strain; assay type: cell-based
Description: as §1
A liquid culture medium, as in Example 1, is inoculated with a pure culture strain DSMZ 457 of the Deutsche Sammlung für Mikroorganismen und Zellkulturen GmbH. A pH drop starting after 1 hour can be stopped by two additions of 0.2 ml of a 1% alcoholic solution of myristic acid (C14), corresponding to a concentration of merely 4 mg/l. After 4 hours, a renewed pH drop starts which can be stopped for further 7 hours by a further addition of 2 mg/l, i.e. in sum 6 mg/l.

[4] = Time 6.25 h, 11×10 and 1×40 mg/l being added between pH 6.55 and 6.30
[5] = Time 6.50 h, 11×10 and 1×40 mg/l added between pH 6.55 and 6.30
[6] = Time 4.50 h, 2×2 mg/l added between pH 6.81 and 6.51

**Q.** For `CCCCCCCCCCCCCC(=O)O` [myristic acid], which “efficacy relative to yeasts” value (yeasts) is on record?
**A.** The value was “markedly lower efficacy”.

**Q.** What about the pH (mesophilic mixed culture; [4]) of the same molecule?
**A.** The pH was 6.41.

**Q.** And the ΔpH/h (mesophilic mixed culture; [4])?
**A.** Its ΔpH/h is 0.56.

**Q.** What about the pH (mesophilic mixed culture; [5]) of the same molecule?
**A.** Its pH is 6.30.

**Q.** What about the ΔpH/h (mesophilic mixed culture; [5]) of the same molecule?
**A.** The ΔpH/h was 0.44.

**Q.** And the pH (mesophilic mixed culture; Time 6.75 h, in sum 150 mg/l)?
**A.** Its pH is 6.19.

**Q.** And the ΔpH/h (mesophilic mixed culture; Time 6.75 h, in sum 150 mg/l)?
**A.** The ΔpH/h was 0.44.

**Q.** And the pH (mesophilic mixed culture; Time 7.00 h, in sum 150 mg/l)?
**A.** The pH was 6.06.

**Q.** What about the ΔpH/h (mesophilic mixed culture; Time 7.00 h, in sum 150 mg/l) of the same molecule?
**A.** Its ΔpH/h is 0.52.

**Q.** What about the pH (mesophilic mixed culture; Time 7.25 h, in sum 150 mg/l) of the same molecule?
**A.** Its pH is 5.94.

**Q.** And the ΔpH/h (mesophilic mixed culture; Time 7.25 h, in sum 150 mg/l)?
**A.** Its ΔpH/h is 0.48.

**Q.** What about the “concentration that stops the pH drop” value (mesophilic mixed culture; pH drop cannot be stopped) of the same molecule?
**A.** The value was over 150 mg/l.

**Q.** And the “duration of effectiveness (pH drop stopped)” value (thermophilic bacteria [1]; 10 mg/l, mixed culture)?
**A.** The value was “at least 14 h”.

**Q.** What about the “effect on pH drop” value (thermophilic bacteria [1]; 10 mg/l, mixed culture) of the same molecule?
**A.** The value was “suddenly and lastingly stopped”.

**Q.** And the pH (thermophilic bacteria [1]; Time 5.50 h)?
**A.** Its pH is 6.47.

**Q.** And the ΔpH/h (thermophilic bacteria [1]; Time 5.50 h)?
**A.** The ΔpH/h was 0.00.

**Q.** And the pH (thermophilic bacteria [1]; Time 6 h)?
**A.** Its pH is 6.47.

**Q.** What about the ΔpH/h (thermophilic bacteria [1]; Time 6 h) of the same molecule?
**A.** The ΔpH/h was 0.00.

**Q.** What about the pH (thermophilic bacteria [1]; Time 7 h) of the same molecule?
**A.** The pH was 6.48.

**Q.** And the ΔpH/h (thermophilic bacteria [1]; Time 7 h)?
**A.** Its ΔpH/h is −0.01.

**Q.** What about the pH (thermophilic bacteria [1]; Time 10 h) of the same molecule?
**A.** The pH was 6.50.

**Q.** What about the ΔpH/h (thermophilic bacteria [1]; Time 10 h) of the same molecule?
**A.** The ΔpH/h was −0.01.

**Q.** What about the pH (thermophilic bacteria [1]; Time 13 h) of the same molecule?
**A.** The pH was 6.53.

**Q.** What about the ΔpH/h (thermophilic bacteria [1]; Time 13 h) of the same molecule?
**A.** Its ΔpH/h is −0.01.

**Q.** What about the pH (thermophilic bacteria [1]; Time 16 h) of the same molecule?
**A.** The pH was 6.55.

**Q.** What about the ΔpH/h (thermophilic bacteria [1]; Time 16 h) of the same molecule?
**A.** Its ΔpH/h is −0.01.

**Q.** What about the pH (thermophilic bacteria [1]; Time 19 h) of the same molecule?
**A.** Its pH is 6.53.

**Q.** What about the ΔpH/h (thermophilic bacteria [1]; Time 19 h) of the same molecule?
**A.** The ΔpH/h was 0.01.

**Q.** What about the MIC (thermophilic bacteria [2]; dissolved in ethanol, 10 mg/l steps, maximum 150 mg/l, 65° C., read-out: Min. Inhibitory Conc. (MIC)) of the same molecule?
**A.** Its MIC is 10 µg/mL (≈ 43.8 µM).

**Q.** And the MIC (thermophilic bacteria [2]; dissolved in ethanol, steps of 2 mg/l, read-out: Min. Inhibitory Conc. (MIC))?
**A.** Its MIC is 6 µg/mL (≈ 26.3 µM).

**Q.** And the MIC (thermophilic bacteria [2]; text summary of Example 9, read-out: MIC (concentration successfully used))?
**A.** Its MIC is 6000 µg/mL (≈ 26300 µM).

**Q.** What about the “time until renewed pH drop” value ([3]; 4 mg/l) of the same molecule?
**A.** Its value is 4 hours.

**Q.** And the pH [3, 6]?
**A.** The pH was 6.51.

**Q.** What about the ΔpH/h [3, 6] of the same molecule?
**A.** Its ΔpH/h is 0.60.

**Q.** What about the pH ([3]; Time 5 h, 4 mg/l) of the same molecule?
**A.** Its pH is 6.50.

**Q.** And the ΔpH/h ([3]; Time 5 h, 4 mg/l)?
**A.** Its ΔpH/h is 0.02.

**Q.** And the pH ([3]; Time 6 h, 4 mg/l)?
**A.** Its pH is 6.51.

**Q.** What about the ΔpH/h ([3]; Time 6 h, 4 mg/l) of the same molecule?
**A.** Its ΔpH/h is −0.01.

**Q.** And the pH ([3]; Time 7 h, 4 mg/l)?
**A.** Its pH is 6.51.

**Q.** What about the ΔpH/h ([3]; Time 7 h, 4 mg/l) of the same molecule?
**A.** The ΔpH/h was 0.00.

**Q.** What about the pH ([3]; Time 8 h, 4 mg/l) of the same molecule?
**A.** Its pH is 6.51.

**Q.** And the ΔpH/h ([3]; Time 8 h, 4 mg/l)?
**A.** The ΔpH/h was 0.00.

**Q.** What about the pH ([3]; Time 9 h, 4 mg/l) of the same molecule?
**A.** Its pH is 6.48.

**Q.** What about the ΔpH/h ([3]; Time 9 h, 4 mg/l) of the same molecule?
**A.** The ΔpH/h was 0.03.

**Q.** And the ΔpH/h ([3]; Time 10.2 h, 4 mg/l, further 2 mg/l added at pH 6.39)?
**A.** The ΔpH/h was 0.08.

**Q.** What about the pH ([3]; Time 10.2 h, 4 mg/l, further 2 mg/l added at this pH) of the same molecule?
**A.** The pH was 6.39.

**Q.** What about the pH ([3]; Time 11 h, in sum 6 mg/l) of the same molecule?
**A.** The pH was 6.39.

**Q.** What about the ΔpH/h ([3]; Time 11 h, in sum 6 mg/l) of the same molecule?
**A.** Its ΔpH/h is 0.00.

**Q.** What about the pH ([3]; Time 12 h, in sum 6 mg/l) of the same molecule?
**A.** The pH was 6.39.

**Q.** And the ΔpH/h ([3]; Time 12 h, in sum 6 mg/l)?
**A.** The ΔpH/h was 0.00.

**Q.** And the pH ([3]; Time 13 h, in sum 6 mg/l)?
**A.** The pH was 6.39.

**Q.** What about the ΔpH/h ([3]; Time 13 h, in sum 6 mg/l) of the same molecule?
**A.** Its ΔpH/h is 0.00.

**Q.** What about the pH ([3]; Time 14 h, in sum 6 mg/l) of the same molecule?
**A.** Its pH is 6.39.

**Q.** And the ΔpH/h ([3]; Time 14 h, in sum 6 mg/l)?
**A.** Its ΔpH/h is 0.00.

**Q.** And the pH ([3]; Time 15 h, in sum 6 mg/l)?
**A.** The pH was 6.39.

**Q.** What about the ΔpH/h ([3]; Time 15 h, in sum 6 mg/l) of the same molecule?
**A.** Its ΔpH/h is 0.00.

**Q.** And the “further time pH drop stopped” value ([3]; further 2 mg/l, in sum 6 mg/l)?
**A.** The value was 7 hours.

**Q.** And the “concentration that stops the pH drop” value ([3]; two additions of 2 mg/l, pure culture)?
**A.** Its value is 4 mg/l.
